The text below walks through data of US8846697B2, “Purine analogs” (The Regents of the University of California, priority 2006, dated 2014).

For this assay, the system named is human PBMC. Kind of assay: Interferon α induction in human PBMC (Luminex, Beadlyte Human MultiCytokine kit). Details: key to IFN-α (Interferon concentration): b: Below lower limit of detection. Format: cell-based. Particulars: for pEC50 / IFN-α (Interferon concentration) / interferon inducing activity (in words): human PBMC; for pEC50: 10 μM to 10 nM, composited from three donors, read-out: EC50 (concentration at which 50% of the maximal IFN concentration was achieved); for pEC50 / IFN-α (Interferon concentration): 24 hr; for IFN-α (Interferon concentration): all compounds tested at 1 μM, averages from four donors; for interferon inducing activity (in words): 1 μM. The procedure:
Reaction of 8-bromo compound 5 with NaN3 followed by Raney-Ni catalyzed hydrogenation furnished compound 6 in good yield. Acylation of compound 6 with ethylchloroformate led to the ethylcarbamate, compound 27, which was converted to the ureido compound 28 by reaction with methanolic ammonia. All compounds were tested for their ability to induce the production of interferon α in human PBMC compared to compound 4 as a positive control. Human blood samples were obtained from the San Diego Blood Bank. Peripheral blood mononuclear cells (PBMC) were isolated by density-gradient centrifugation over Ficoll-Hypaque (Amersham Pharmacia). Cells were resuspended in RPMI 1640 medium, supplemented with 10% fetal bovine serum (FBS), L-glutamine, and penicillin/streptomycin (RP10; Invitrogen, Carlsbad, Calif.), plated at 10^6 cells/well in 96-well plates, and stimulated with compounds at 1 μM final concentration for 24 hr. at 37° C., 5% CO2. The IFN-α level in the supernatants was measured by Luminex (Austin, Tex.) using the Beadlyte Human MultiCytokine kit (Upstate, Charlottesville, Va.), according to the manufacturer's instructions. Results presented in Table 2 are averages of data composited from four different donors. […] Detailed analytical data for these compounds is as follows:
For this dose response study, cells were treated with the listed compounds at concentrations ranging from 10 μM to 10 nM for 24 hr. The data shown in Table 3 are composited from three different donors, and a non-linear regression curve fit analysis was performed using GraphPad Prism software version 4.0b (San Diego, Calif.) to determine the EC50.

Molecules are shown by their SMILES. pEC50: −log10 of the molar value. “Also recorded” adds a separate entry of the source.

As for `COCCOc1nc(N)c2[nH]c(=O)n(Cc3ccccc3)c2n1` [Compound 4, 9-benzyl-2-methoxyethoxy-8-oxoadenine, reference compound], the pEC50 was 6.85 and the “IFN-α (Interferon concentration)” value was determined as 418.00 pg/mL.

For `COCCOc1nc(N)c2nc(N)n(Cc3ccccc3)c2n1` [Compound 6], the “interferon inducing activity (in words)” value is recorded as “completely removed all interferon inducing activity”, the pEC50 was below 5.00 and the “IFN-α (Interferon concentration)” value came to 35.25 pg/mL.

In the case of `CNc1nc2c(N)nc(OCCOC)nc2n1Cc1ccccc1` [Compound 7], the “IFN-α (Interferon concentration)” value is listed as “b”.

On to `CCNc1nc2c(N)nc(OCCOC)nc2n1Cc1ccccc1` [Compound 8], for which the “interferon inducing activity (in words)” value was “most active; also recorded: superior to the others”, the pEC50 was 5.35 and the “IFN-α (Interferon concentration)” value was found to be 80.30 pg/mL.

As for `CCCNc1nc2c(N)nc(OCCOC)nc2n1Cc1ccccc1` [Compound 9], the “IFN-α (Interferon concentration)” value is listed as 8.80 pg/mL.

For `CCCCNc1nc2c(N)nc(OCCOC)nc2n1Cc1ccccc1` [Compound 10], the “IFN-α (Interferon concentration)” value is 0.73 pg/mL.

Regarding `CCN(CC)c1nc2c(N)nc(OCCOC)nc2n1Cc1ccccc1` [Compound 11], the “interferon inducing activity (in words)” value is recorded as “activity is lost” and the “IFN-α (Interferon concentration)” value was “b”.

`COCCOc1nc(N)c2nc(NCCO)n(Cc3ccccc3)c2n1` [Compound 12]: the “interferon inducing activity (in words)” value is “most active; also recorded: activity was enhanced somewhat”, the pEC50 was 5.27 and the “IFN-α (Interferon concentration)” value was 99.21 pg/mL.

Take `COCCOc1nc(N)c2nc(N(CCO)CCO)n(Cc3ccccc3)c2n1` [Compound 13]: the “interferon inducing activity (in words)” value was “abrogated activity” and the “IFN-α (Interferon concentration)” value is given as 0.82 pg/mL.

For `COCCOc1nc(N)c2nc(NCCCO)n(Cc3ccccc3)c2n1` [Compound 14], the “interferon inducing activity (in words)” value is “most active”, the pEC50 was 5.49 and the “IFN-α (Interferon concentration)” value came out at 113.18 pg/mL. Moreover, for the setting “listed as hydroxypropyl”, the “interferon inducing activity (in words)” value is recorded as “about equally active”.

For `COCCOc1nc(N)c2nc(NCCCCO)n(Cc3ccccc3)c2n1` [Compound 15], the “interferon inducing activity (in words)” value was “devoid of activity” and the “IFN-α (Interferon concentration)” value is given as “b”.

In the case of `COCCOc1nc(N)c2nc(NCC3CCCO3)n(Cc3ccccc3)c2n1` (stereo not drawn) [Compound 16], the “IFN-α (Interferon concentration)” value is “b”.

Take `COCCOc1nc(N)c2nc(NCc3ccccc3)n(Cc3ccccc3)c2n1` [Compound 17]: the “IFN-α (Interferon concentration)” value is recorded as “b”.

On to `COCCOc1nc(N)c2nc(NCCc3ccccc3)n(Cc3ccccc3)c2n1` [Compound 18], for which the “interferon inducing activity (in words)” value was “not active” and the “IFN-α (Interferon concentration)” value is on record as 1.33 pg/mL.

For `COCCOc1nc(N)c2nc(NCCN3CCOCC3)n(Cc3ccccc3)c2n1` [Compound 19], the “interferon inducing activity (in words)” value was “most active; also recorded: highest activity”, the pEC50 is 6.10 and the “IFN-α (Interferon concentration)” value was found to be 110.48 pg/mL. The “EC50 (in words)” value (interferon induction in human PBMC) is recorded as “submicromolar range”.

Regarding `COCCOc1nc(N)c2nc(NCCN3CCCCC3)n(Cc3ccccc3)c2n1` [Compound 20], the “interferon inducing activity (in words)” value is on record as “not active” and the “IFN-α (Interferon concentration)” value was “b”.

As to `COCCNc1nc2c(N)nc(OCCOC)nc2n1Cc1ccccc1` [Compound 21], the “IFN-α (Interferon concentration)” value is given as “b”.

For `COCCOc1nc(N)c2nc(NCCN(CCO)CCO)n(Cc3ccccc3)c2n1` [Compound 22], the “IFN-α (Interferon concentration)” value was “b”.

`COCCOc1nc(N)c2nc(NCCCN(CCO)CCO)n(Cc3ccccc3)c2n1` [Compound 23]: the “IFN-α (Interferon concentration)” value is reported as “b”.

With `COCCOc1nc(N)c2nc(NCC3CCCCC3)n(Cc3ccccc3)c2n1` [Compound 24], the “IFN-α (Interferon concentration)” value was “b”.

As to `COCCOc1nc(N)c2nc(N3CCOCC3)n(Cc3ccccc3)c2n1` [Compound 25], the “interferon inducing activity (in words)” value is “not active” and the “IFN-α (Interferon concentration)” value was 0.41 pg/mL.

On to `COCCOc1nc(N)c2nc(NCCc3c[nH]c4ccccc34)n(Cc3ccccc3)c2n1` [Compound 26], for which the “interferon inducing activity (in words)” value was “not active” and the “IFN-α (Interferon concentration)” value is on record as “b”.

Turning to `CCOC(=O)Nc1nc2c(N)nc(OCCOC)nc2n1Cc1ccccc1` [Compound 27], the “IFN-α (Interferon concentration)” value came out at 1.03 pg/mL.

As for `COCCOc1nc(N)c2nc(NC(N)=O)n(Cc3ccccc3)c2n1` [Compound 28], the “IFN-α (Interferon concentration)” value is reported as “b”.

Consider `COCCOc1nc(N)c2nc(NN)n(Cc3ccccc3)c2n1` [Compound 29], for which the “IFN-α (Interferon concentration)” value is recorded as 0.21 pg/mL.
